Measurements from the supplement of paper PMC10307832.

Assays:
Experiment in all cases: relative viability (nuclei count vs DMSO), 5 days (fraction); higher = more cells survive
Zebularine + Dasatinib = compound: O=c1ncccn1[C@@H]1O[C@H](CO)[C@@H](O)[C@H]1O [Zebularine] + Cc1nc(Nc2ncc(C(=O)Nc3c(C)cccc3Cl)s2)cc(N2CCN(CCO)CC2)n1 [Dasatinib] (partner 0.075 µM)
Method in brief: (§1)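 One day after seeding in 1536-well plates, lung cancer cell lines were dosed by pin tool. Dosing was either single-drug or a fixed anchor-drug dose plus five library-drug doses (not always all listed) in √10 steps. After 5 days, nuclei were stained in one fix-and-stain step and counted on 4× images, and relative viability is the nuclei count of treated wells over that of vehicle wells, given as the median of duplicate plates.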

BI-D1870 + OSI-027 = compound: CC(C)CCN1c2nc(Nc3cc(F)c(O)c(F)c3)ncc2N(C)C(=O)C1C [BI-D1870] + COc1cccc2cc(-c3nc([C@H]4CC[C@H](C(=O)O)CC4)n4ncnc(N)c34)[nH]c12 [OSI-027] (partner 0.5 µM)
Method in brief: as §1

BI-D1870 + Pictilisib = compound: CC(C)CCN1c2nc(Nc3cc(F)c(O)c(F)c3)ncc2N(C)C(=O)C1C [BI-D1870] + CS(=O)(=O)N1CCN(Cc2cc3nc(-c4cccc5[nH]ncc45)nc(N4CCOCC4)c3s2)CC1 [Pictilisib] (partner 1 µM)
Method in brief: as §1

Zebularine + Lapatinib = compound: O=c1ncccn1[C@@H]1O[C@H](CO)[C@@H](O)[C@H]1O [Zebularine] + CS(=O)(=O)CCNCc1ccc(-c2ccc3ncnc(Nc4ccc(OCc5cccc(F)c5)c(Cl)c4)c3c2)o1 [Lapatinib] (partner 2 µM)
Method in brief: as §1

Cell Line	relative viability (Zebularine + Dasatinib; first compound 1 µM)	relative viability (Zebularine + Dasatinib; first compound 3.162 µM)	relative viability (Zebularine + Dasatinib; first compound 10 µM)	relative viability (Zebularine + Dasatinib; first compound 31.62 µM)	relative viability (Zebularine + Dasatinib; first compound 100 µM)	relative viability (BI-D1870 + OSI-027; first compound 0.04 µM)	relative viability (BI-D1870 + OSI-027; first compound 0.1265 µM)	relative viability (BI-D1870 + OSI-027; first compound 0.4 µM)	relative viability (BI-D1870 + OSI-027; first compound 1.265 µM)	relative viability (BI-D1870 + OSI-027; first compound 4 µM)	relative viability (BI-D1870 + Pictilisib; first compound 0.04 µM)	relative viability (BI-D1870 + Pictilisib; first compound 0.1265 µM)	relative viability (BI-D1870 + Pictilisib; first compound 0.4 µM)	relative viability (BI-D1870 + Pictilisib; first compound 1.265 µM)	relative viability (BI-D1870 + Pictilisib; first compound 4 µM)	relative viability (Zebularine + Lapatinib; first compound 1 µM)	relative viability (Zebularine + Lapatinib; first compound 3.162 µM)	relative viability (Zebularine + Lapatinib; first compound 10 µM)	relative viability (Zebularine + Lapatinib; first compound 31.62 µM)	relative viability (Zebularine + Lapatinib; first compound 100 µM)
NCI-H2342	0.364	0.337	0.268	0.334	0.341	0.592	0.587	0.645	0.773	0.679	–	–	–	–	–	–	–	–	–	–
HCC-15	0.759	0.577	0.494	0.486	0.27	0.732	0.611	0.638	0.765	0.396	0.792	0.661	0.674	0.79	0.509	0.941	0.822	0.74	0.825	0.401
A-427	0.841	0.664	0.434	0.535	0.2	0.547	0.429	0.574	0.61	0.528	0.824	0.553	0.689	0.716	0.654	1.13	1.01	0.691	0.58	0.256
NCI-H2228	0.606	0.518	0.322	0.448	0.222	0.659	0.533	0.654	0.515	0.257	0.395	0.356	0.448	0.468	0.225	1.19	1.04	0.66	0.638	0.281
NCI-H1734	0.546	0.486	0.333	0.297	0.281	0.569	0.541	0.567	0.629	0.472	0.5	0.401	0.434	0.472	0.358	1.05	1.01	0.452	0.5	0.493
PC-14	0.301	0.198	0.224	0.0811	0.0854	0.995	0.626	0.747	0.773	0.605	0.769	0.688	0.557	0.537	0.438	0.448	0.296	0.201	0.163	0.126
NCI-H1915	0.362	0.328	–	0.374	0.287	0.665	0.516	0.591	0.476	0.411	1.08	0.914	0.907	0.897	0.671	1.12	0.961	0.717	1.13	0.979
NCI-H1666	0.828	0.817	0.714	0.993	0.689	0.943	0.808	0.849	0.89	0.807	0.655	0.442	0.409	0.584	0.321	0.561	0.57	0.49	0.667	0.593
HCC-366	0.617	0.667	0.526	0.721	0.218	1.1	0.603	0.75	0.818	0.49	0.157	0.159	0.0753	0.136	0.174	1.22	0.984	0.329	0.749	0.0986
SK-MES-1	0.386	0.423	0.356	0.299	0.166	0.699	0.559	0.567	0.55	0.336	0.345	0.332	0.291	0.308	0.23	0.484	0.435	0.397	0.427	0.269
SW 1573	0.555	0.523	–	0.548	0.475	0.598	0.436	0.513	0.477	0.329	0.6	0.414	0.47	0.402	0.368	1.24	0.773	0.502	1.23	0.873
NCI-H661	0.833	0.918	0.868	1.05	0.819	0.765	0.622	0.652	0.706	0.467	0.377	0.44	0.36	0.505	0.313	0.443	0.463	0.461	0.436	0.583
PC-3 [JPC-3]	1.05	1.05	0.61	0.979	0.79	0.752	0.703	0.674	0.697	0.565	0.768	0.71	0.699	0.793	0.645	0.479	0.471	0.412	0.482	0.411
NCI-H1623	0.632	0.47	0.459	0.53	0.386	0.389	0.439	0.457	0.396	0.376	–	–	–	–	–	–	–	–	–	–
Calu-6	–	–	–	–	–	–	–	–	–	–	1.03	0.82	0.868	0.704	0.367	1.17	0.99	0.604	0.813	0.347
LC-2-ad	0.731	0.494	0.226	0.491	0.34	0.93	0.861	0.824	0.867	0.802	0.536	0.456	0.498	0.0168	0.474	1.05	0.886	0.722	0.584	0.168
CAL-12T	0.462	0.623	0.238	0.451	0.414	0.593	0.449	0.477	0.599	0.303	0.554	0.363	0.382	0.657	0.336	0.757	0.658	–	0.701	0.633

Cell Line	relative viability (Zebularine + Dasatinib; first compound 1 µM)	relative viability (Zebularine + Dasatinib; first compound 3.162 µM)	relative viability (Zebularine + Dasatinib; first compound 10 µM)	relative viability (Zebularine + Dasatinib; first compound 31.62 µM)	relative viability (Zebularine + Dasatinib; first compound 100 µM)	relative viability (BI-D1870 + OSI-027; first compound 0.04 µM)	relative viability (BI-D1870 + OSI-027; first compound 0.1265 µM)	relative viability (BI-D1870 + OSI-027; first compound 0.4 µM)	relative viability (BI-D1870 + OSI-027; first compound 1.265 µM)	relative viability (BI-D1870 + OSI-027; first compound 4 µM)	relative viability (BI-D1870 + Pictilisib; first compound 0.04 µM)	relative viability (BI-D1870 + Pictilisib; first compound 0.1265 µM)	relative viability (BI-D1870 + Pictilisib; first compound 0.4 µM)	relative viability (BI-D1870 + Pictilisib; first compound 1.265 µM)	relative viability (BI-D1870 + Pictilisib; first compound 4 µM)	relative viability (Zebularine + Lapatinib; first compound 1 µM)	relative viability (Zebularine + Lapatinib; first compound 3.162 µM)	relative viability (Zebularine + Lapatinib; first compound 10 µM)	relative viability (Zebularine + Lapatinib; first compound 31.62 µM)	relative viability (Zebularine + Lapatinib; first compound 100 µM)
RERF-LC-KJ	0.92	0.81	0.759	0.999	0.956	0.595	0.478	0.558	0.628	0.389	0.546	0.501	0.451	0.597	0.459	0.901	0.946	–	0.92	0.863
NCI-H1650	0.384	0.366	0.324	0.342	0.312	0.653	0.591	0.593	0.68	0.331	0.632	0.484	0.527	0.533	0.558	0.878	0.618	–	1.08	0.86
BEN	0.32	0.303	0.253	0.223	0.146	0.296	0.289	0.283	0.311	0.283	0.56	0.608	0.566	0.608	0.507	0.661	0.491	0.347	0.311	0.22
EMC-BAC-2	0.349	0.367	0.268	0.318	0.311	0.46	0.37	0.351	0.422	0.334	0.626	0.48	0.514	0.637	0.535	0.984	0.964	0.647	0.968	0.981
NCI-H1299	–	–	–	–	–	–	–	–	–	–	0.801	0.774	0.653	0.514	0.19	0.965	0.937	0.619	0.968	0.493
EBC-1	–	–	–	–	–	–	–	–	–	–	0.459	0.451	0.354	0.363	0.123	0.244	0.197	–	0.205	0.212
NCI-H1648	–	–	–	–	–	0.266	0.255	0.273	0.252	0.277	–	–	–	–	–	–	–	–	–	–
ChaGo-K-1	0.619	0.557	0.312	0.269	0.183	0.652	0.55	0.547	0.559	0.538	0.757	0.807	0.502	0.758	0.407	–	–	–	–	–
HCC-44	–	–	–	–	–	0.751	0.5	0.642	0.464	0.383	0.651	0.498	0.617	0.768	0.443	1.07	1.07	0.566	0.951	0.454
A549	–	–	–	–	–	–	–	–	–	–	0.725	0.499	0.369	0.465	0.0705	1.16	0.941	0.438	0.698	0.2
NCI-H522	0.859	0.886	0.473	0.933	0.938	0.872	0.66	0.655	0.654	0.649	–	–	–	–	–	–	–	–	–	–
IA-LM	–	–	–	–	–	–	–	–	–	–	0.406	0.294	0.268	0.196	0.106	0.908	1.07	–	0.773	0.599
NCI-H1703	–	–	–	–	–	–	–	–	–	–	0.256	0.245	0.234	0.213	0.209	0.994	0.979	–	1.52	0.952
NCI-H441	0.705	0.619	0.394	0.41	0.271	0.577	0.557	0.601	0.637	0.496	0.498	0.374	0.518	0.466	0.492	–	–	–	–	–
LCLC-103H	0.485	0.479	0.251	0.475	0.44	0.387	0.417	0.447	0.418	0.366	0.631	0.573	0.563	0.573	0.494	–	–	–	–	–
SW 900	0.647	0.498	0.328	0.926	0.484	0.808	0.424	0.442	0.604	0.327	–	–	–	–	–	–	–	–	–	–
